The target in assay [1] is T1, Bruton's Tyrosine Kinase (Btk) (Homo sapiens, UniProt Q06187).
T1 construct: 5-10 nM Btk enzyme (His-tagged, full-length); His tag
Description: Determination of IC50 of Bruton's Tyrosine Kinase (Btk) inhibition, 33P filtration assay. It is filed as biochemical. The following applies: His-tagged full-length Btk, 100 μM ATP. A digest of the protocol:
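Full-length His-tagged Btk (5-10 nM) preincubated 10 min at RT with compounds, then 30 min at 30° C with 30 μM biotinylated SH2 peptide, 100 μM ATP plus ^33P ATP, Mn/Mg in imidazole buffer pH 7.2. Product captured on streptavidin beads, counted by scintillation; 10-point half-log IC50 from 100 μM, background without substrate.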

In the next assay the test system is Ramos cells. Description: Inhibition of B-cell activation, B cell FLIPR assay in Ramos cells. It is filed as cell-based. The following applies: Homo sapiens, anti-IgM stimulated intracellular calcium increase. From the text: Inhibition of B-cell Activation—B Cell FLIPR Assay in Ramos Cells
The B cell FLIPR assay is a cell based functional method of determining the effect of potential inhibitors of the intracellular calcium increase from stimulation by an anti-IgM antibody. Ramos cells (human Burkitt's lymphoma cell line. ATCC-No. CRL-1596) were cultivated in Growth Media (described below). One day prior to assay, Ramos cells were resuspended in fresh growth media (same as above) and set at a concentration of 0.5×10^6/mL in tissue culture flasks. On day of assay, cells were counted and set at a concentration of 1×10^6/mL in growth media supplemented with 1 μM FLUO-3 AM(TefLabs Cat-No. 0116, prepared in anhydrous DMSO and 10% Pluronic acid) in a tissue culture flask, and incubated at 37° C. (4% CO2) for 1 h. To remove extracellular dye, cells were collected by centrifugation (5 min, 1000 rpm), resuspended in FLIPR buffer (described below) at 1×10^6 cells/mL and then dispensed into 96-well poly-D-lysine coated black/clear plates (BD Cat-No. 356692) at 1×10^5 cells per well. Test compounds at seven concentrations ranging from 100 μM to 0.03 μM were added, and allowed to incubate with cells for 30 min at RT. Ramos cell Ca^2+ signaling was stimulated by the addition of 10 μg/mL anti-IgM (Southern Biotech, Cat-No. 2020-01) and measured on a FLIPR (Molecular Devices, captures images of 96 well plates using a CCD camera with an argon laser at 480 nm excitation).
Growth Medium: RPMI 1640 medium with L-glutamine (Invitrogen, Cat-No. 61870-010), 10% Fetal Bovine Serum (FBS, Summit Biotechnology Cat-No. FP-100-05); 1 mM Sodium Pyruvate (Invitrogen Cat. No. 11360-070).
FLIPR buffer: HBSS (Invitrogen, Cat-No. 141175-079),2 mM CaCl2 (Sigma Cat-No. C-4901), HEPES (Invitrogen, Cat-No. 15630-080), 2.5 mM Probenecid (Sigma, Cat-No. P-8761), 0.1% BSA (Sigma, Cat-No. A-7906), 11 mM Glucose (Sigma, Cat-No. G-7528).
In order to achieve the highest final assay concentration of 100 μM, 24 μL of 10 mM compound stock solution (made in DMSO) is added directly to 576 μL of FLIPR buffer. The test compounds are diluted in FLIPR Buffer (using Biomek 2000 robotic pipettor) resulting in the following dilution scheme: vehicle, 1.00×10^−4 M, 1.00×10^−5, 3.16×10^−6, 1.00×10^−6, 3.16×10^−7, 1.00×10^−7, 3.16×10^−8.
Intracellular increases in calcium were reported using a max-min statistic (subtracting the resting baseline from the peak caused by addition of the stimulatory antibody using a Molecular Devices FLIPR control and statistic exporting software. The IC50 was determined using a non-linear curve fit (GraphPad Prism software). Representative results are in Table 1.
(In general: Calcium assays in cells follow changes in intracellular calcium, usually with a dye or a luminescent sensor.)

A word on the IC50: it is the concentration that gives 50% inhibition.

T1 sequence (Q06187 whole entry): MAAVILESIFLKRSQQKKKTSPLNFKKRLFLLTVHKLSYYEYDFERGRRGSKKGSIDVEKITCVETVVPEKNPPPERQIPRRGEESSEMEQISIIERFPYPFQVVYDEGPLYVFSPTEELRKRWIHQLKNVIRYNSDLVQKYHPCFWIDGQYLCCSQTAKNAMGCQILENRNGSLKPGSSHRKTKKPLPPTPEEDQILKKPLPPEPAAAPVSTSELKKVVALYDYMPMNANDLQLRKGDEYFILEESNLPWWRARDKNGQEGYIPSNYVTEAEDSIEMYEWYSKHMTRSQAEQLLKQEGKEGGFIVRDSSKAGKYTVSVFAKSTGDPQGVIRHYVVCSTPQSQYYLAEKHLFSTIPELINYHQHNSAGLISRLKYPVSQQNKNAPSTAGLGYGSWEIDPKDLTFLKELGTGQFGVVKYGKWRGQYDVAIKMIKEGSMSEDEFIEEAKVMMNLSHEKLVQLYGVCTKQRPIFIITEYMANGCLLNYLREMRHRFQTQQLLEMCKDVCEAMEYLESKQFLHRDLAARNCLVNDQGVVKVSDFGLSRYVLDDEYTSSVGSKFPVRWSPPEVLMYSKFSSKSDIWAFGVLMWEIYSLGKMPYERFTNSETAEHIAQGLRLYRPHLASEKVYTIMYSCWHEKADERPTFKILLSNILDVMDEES

Turning to `Cc1cc(Nc2nn(C(C)C)c(=O)c3cc(N(C)C)ccc23)n[nH]1` [Example F-6, 2-Isopropyl-4-(5-methyl-1H-pyrazol-3-ylamino)-7-dimethylamino-2H-phthalazin-1-one], the half-inhibitory concentration (IC50) in assay [1] was 0.468 µM; with Ramos cells, 1.13 µM.
